Source: ChEMBL document CHEMBL6114981, “Research progress of flavonoids targeting estrogen receptor in the treatment of breast cancer” (Bioorg Med Chem, 2025)
One block for each compound: values may come before it.

Experiments:
MCF7 [1] = assay: Cytotoxicity against human MCF7 cells assessed as reduction in cell viability incubated for 24 hrs by MTT assay; settings: MCF7, 24 h
MCF7 [2] = assay: Antiproliferative activity against human MCF7 cells
MCF7 [3] = assay: Antiproliferative activity against human MCF7 cells assessed as reduction in cell viability by MTT assay
MDA-MB-231 = assay: Antiproliferative activity against human MDA-MB-231 cells assessed as reduction in cell viability by MTT assay
[4] = Downregulation of ERalpha expression in human MCF7 cells measured for 24 hrs by Western blot analysis; settings: MCF7, 24 h
HEK-293T = assay: Cytotoxicity against HEK293T cells; settings: Homo sapiens
Aromatase = molecular target: T1, Aromatase (Homo sapiens, UniProt P11511); assay: Binding affinity to human placental aromatase in MCF7 cells assessed as inhibition constant
T1 sequence (P11511 whole entry): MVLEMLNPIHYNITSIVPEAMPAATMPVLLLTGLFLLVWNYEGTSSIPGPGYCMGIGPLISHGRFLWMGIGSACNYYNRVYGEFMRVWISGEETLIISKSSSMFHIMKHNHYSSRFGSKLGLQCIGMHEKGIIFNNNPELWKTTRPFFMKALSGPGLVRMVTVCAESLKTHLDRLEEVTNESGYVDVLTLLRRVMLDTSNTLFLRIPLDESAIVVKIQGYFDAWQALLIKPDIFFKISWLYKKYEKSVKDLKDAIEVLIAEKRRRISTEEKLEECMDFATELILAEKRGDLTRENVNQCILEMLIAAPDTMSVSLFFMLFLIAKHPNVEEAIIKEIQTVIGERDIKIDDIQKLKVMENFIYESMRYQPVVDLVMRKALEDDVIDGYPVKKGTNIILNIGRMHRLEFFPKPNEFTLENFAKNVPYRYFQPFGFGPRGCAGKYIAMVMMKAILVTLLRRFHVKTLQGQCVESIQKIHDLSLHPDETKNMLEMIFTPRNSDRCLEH

MCF7 [5] = assay: Cytotoxicity against human MCF7 cells
Ishikawa = assay: Antiproliferative activity against human Ishikawa cells assessed as reduction in cell viability incubated for 48 hrs by MTT assay
MCF7 [6] = assay: Antiproliferative activity against human MCF-7 cells assessed as reduction in cell viability incubated for 48 hrs by MTT assay; settings: MCF7, 48 h

Structure (SMILES): CC1=C(c2cc(F)cc(F)c2)[C@@H](c2ccc(/C=C/CN3CC(CF)C3)cc2)Oc2cc(O)ccc21
IC50 (MCF7 [1]): 69.9 nM

Structure (SMILES): C[C@@H]1OC(Oc2cc(O)c3c(=O)c(O[C@H]4OC[C@@](O)(CO)[C@@H]4O)c(-c4ccc(O)cc4)oc3c2)[C@H](O)[C@H](O)[C@H]1O (stereo partly specified)
IC50 (MCF7 [1]): 48 nM

Structure (SMILES): O=c1c(O)c(-c2ccc(O)c(O)c2)oc2cc(O)cc(O)c12 [QUERCETIN]
IC50 (HEK-293T): 1200 nM

Structure (SMILES): COc1cc(O)c2c(c1)OC(c1ccc(O)cc1)CC2=O (single isomer, unassigned) [SAKURANETIN]
Ki (Aromatase): 1200 nM

Structure (SMILES): O=c1c(O)c(-c2ccc(O)c(O)c2)oc2cc(O)ccc12 [FISETIN]
IC50 (MCF7 [5]): 8500 nM

Structure (SMILES): C=C(C)[C@H]1Cc2c(ccc3c2O[C@@H]2COc4cc(OC)c(OC)cc4[C@@H]2C3=O)O1 [ROTENONE]
Ki (Aromatase): 300 nM

Structure (SMILES): O=C1C[C@@H](c2ccccc2)Oc2cc(O)cc(O)c21 [PINOCEMBRIN]
Ki (Aromatase): 10800 nM

Structure (SMILES): COc1cc2c(cc1C(=O)c1ccc(OCCN3CCCCC3)cc1)C=C(c1ccccc1)C(C)(C)O2
IC50 (Ishikawa): 17700 nM

Structure (SMILES): COc1ccc(-c2cc(=O)c3c(O)cc(OC)cc3o2)cc1 [APIGENIN DIMETHYLETHER]
Ki (Aromatase): 2100 nM

Structure (SMILES): COc1cc(O)c2c(=O)cc(-c3ccc(OC)c(-c4c(O)cc(O)c5c(=O)cc(-c6ccc(O)cc6)oc45)c3)oc2c1 [GINKGETIN]
IC50 (MCF7 [5]): 10000 nM

Structure (SMILES): CC1=C(c2cc(F)cc(F)c2)[C@H](c2ccc(/C=C/CN3CC(CF)C3)cc2)Oc2cc(O)ccc21 [BEXIRESTRANT]
IC50 (MCF7 [1]): 0.3 nM

Second part, the compound after the results:

IC50 (MCF7 [2]): 0.58 nM
Structure (SMILES): CC1=C(c2ccc(OC(=O)C(C)(C)C)cc2)[C@H](c2ccc(OCCN3CCCCC3)cc2)Oc2cc(OC(=O)C(C)(C)C)ccc21

IC50 (MCF7 [3]): 5700 nM
IC50 (MDA-MB-231): 12700 nM
Structure (SMILES): COc1ccc(-c2c(C(=O)c3ccc(OCCN4CCCCC4)cc3)c3ccc(OC)cc3oc2=O)cc1

IC50 [4]: 3 nM
Structure (SMILES): Cc1cc(OC(F)(F)F)ccc1-c1c(Oc2ccc(/C=C/C(=O)O)cc2)c2ccc(O)cc2oc1=O

IC50 (MCF7 [2]): 2720 nM
Structure (SMILES): CN1CCN(c2ccc(-c3cc(=O)c4ccccc4o3)cc2)CC1

IC50 [4]: 100 nM
Structure (SMILES): COc1ccc(C(=O)C2=C(Oc3ccc(/C=C/C(=O)O)cc3)c3ccc(O)cc3OC2)cc1

IC50 [4]: 1180 nM
Structure (SMILES): O=C(O)/C=C/c1ccc(Cc2c(-c3ccccc3)c(=O)oc3cc(O)ccc23)cc1

IC50 (MCF7 [2]): 0.32 nM
Structure (SMILES): CC1=C(c2ccc(O)cc2)[C@H](c2ccc(OCCN3CCCCC3)cc2)Oc2cc(O)ccc21 [ACOLBIFENE]

IC50 (MCF7 [6]): 2190 nM
Structure (SMILES): O=c1oc2cc(O)ccc2c(Oc2ccc(OCCN3CCCCC3)cc2)c1-c1ccc(F)cc1

IC50 [4]: 810 nM
Structure (SMILES): Cc1cc(OC(F)(F)F)ccc1-c1c(Oc2ccc(/C=C/C(=O)O)cc2)c2ccccc2oc1=O
